The text below walks through data of patent US9403823B2, “Protein kinase inhibitors” (ORIBASE PHARMA, priority 2012, dated 2016).

The term inhibition denotes the drop in the measured response relative to a control, in per cent. By EC50 is commonly meant the midpoint of the concentration-response curve.

Read-outs that look alike come from different tables or passages of the source.

Assay [1] concerns the target T1, EGFR (ErbB1) (Homo sapiens, UniProt P00533).
T1 construct: purchased Invitrogen
Nature of the assay: In vitro kinase assay (Z'-LYTE), EGFR (ErbB1). Type of assay: biochemical. The settings on record: read-out: % of inhibition of the kinase compared to the control. A digest of the protocol:
(§1)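 Z'-LYTE, HEPES pH 7.5/MgCl2/EGTA/BRIJ-35 buffer, 1% DMSO; cpd 100 nM (ABL, ABL T315I: 10 μM); ratiometric FRET read-out after protease development; % inhibition.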

The target in assay [2] is T2, BRAF (Homo sapiens, UniProt P15056).
T2 construct: purchased Invitrogen
Nature of the assay: In vitro kinase assay (Z'-LYTE), BRAF. It counts as biochemical. As to conditions: read-out: % of inhibition of the kinase compared to the control. A digest of the protocol:
as §1

The target of assay [3] is T3, KDR (VEGFR2) (Homo sapiens, UniProt P35968).
T3 construct: purchased Invitrogen
In words: In vitro kinase assay (Z'-LYTE), KDR (VEGFR2). Type of assay: biochemical. The settings on record: read-out: % of inhibition of the kinase compared to the control. A digest of the protocol: as §1

The test system of assay [4] is MDA-MB-231 cell line. Nature of the assay: In vitro cell proliferation assay (MTT), MDA-MB-231. It counts as cell-based. As to conditions: Homo sapiens, MDA-MB-231, 72 h; read-out: EC50, anti-proliferative activity. The method, then:
(§2) 2) In Vitro Cell Proliferation Assays (Table 22 to Table 35)
(§3) Cancer cell lines (5×10^3 cells per well) or HUVEC (1×10^4 cells per well) or HRMEC (1×10^4 cells per well) were distributed in 96-well plates and incubating in duplicate with escalating concentrations (10 nM to 3 μM) of compounds for 72 hr. Cell proliferation was measured using MTT (3[4,5-dimethylthiazol-2-yl]-2,5-diphenyltetrazolium bromide).

The test system of assay [5] is HuH6 Clone 5 cell line. Nature of the assay: In vitro cell proliferation assay (MTT), HuH6 Clone 5. Type of assay: cell-based. The settings on record: read-out: EC50, anti-proliferative activity. The method, then:
as §2, §3

Assay [6] deals with HT29 cell line. Nature of the assay: In vitro cell proliferation assay (MTT), HT29. As to conditions: Homo sapiens, read-out: EC50, anti-proliferative activity. It counts as cell-based. The method, then:
as §2, §3

Assay [7] concerns A549 cell line. In words: In vitro cell proliferation assay (MTT), A549. Type of assay: cell-based. The settings on record: Homo sapiens, read-out: EC50, anti-proliferative activity. The method, then:
as §2, §3

The target in assay [8] is T4, FGFR2 (Homo sapiens, UniProt P21802).
T4 construct: purchased Invitrogen
Nature of the assay: In vitro kinase assay (Z'-LYTE), FGFR2. Type of assay: biochemical. The settings on record: read-out: % of inhibition of the kinase compared to the control. The method in brief: as §1

The subject of assay [9] is HuCCT1 cell line. Nature of the assay: In vitro cell proliferation assay (MTT), HuCCT1. As to conditions: Homo sapiens, read-out: EC50, anti-proliferative activity. It counts as cell-based. The method, then:
as §2, §3

The test system of assay [10] is HeLa cell line. In words: In vitro cell proliferation assay (MTT), HeLa. The settings on record: Homo sapiens, 72 hr, MTT, read-out: EC50, anti-proliferative activity. It counts as cell-based. The method, then:
as §2, §3

The subject of assay [11] is HRMEC cells. In words: In vitro cell proliferation assay (MTT), HRMEC. It counts as cell-based. As to conditions: 72 h, read-out: EC50, anti-proliferative activity. The method, then:
as §2, §3

For assay [12], the system named is HepG2 cell line. In words: In vitro cell proliferation assay (MTT), HepG2. It counts as cell-based. The settings on record: Homo sapiens, read-out: EC50, anti-proliferative activity. The method in brief: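 MTT readout of proliferation after 72 hr compound exposure; tumour lines 5×10^3 cells/well, HRMEC 1×10^4 cells/well; dose range 10 nM–3 μM, duplicates.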
The test system of assay [13] is HuH7 cell line. In words: In vitro cell proliferation assay (MTT), HuH7. Type of assay: cell-based. The settings on record: Homo sapiens, read-out: EC50, anti-proliferative activity. The method, then: as §2, §3
The test system of assay [14] is HUVEC. Nature of the assay: In vitro cell proliferation assay (MTT), HUVEC. Type of assay: cell-based. As to conditions: Homo sapiens, read-out: EC50, anti-proliferative activity. A digest of the protocol:
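Anti-proliferative effects on human umbilical vein endothelial cells were assessed by an MTT (3[4,5-dimethylthiazol-2-yl]-2,5-diphenyltetrazolium bromide) readout. Cells (1×10^4 cells per well) in 96-well plates were incubated in duplicate for 72 hr with escalating test compound concentrations spanning 10 nM to 3 μM.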

In assay [15] the target is T5, EGFR (ErbB1) T790M L858R (Homo sapiens, UniProt P00533, L858R/T790M).
T5 construct: purchased Invitrogen
Nature of the assay: In vitro kinase assay (Z'-LYTE), EGFR (ErbB1) T790M L858R. Type of assay: biochemical. As to conditions: read-out: % of inhibition of the kinase compared to the control. The method, then: 1) In Vitro Kinase Assays (Table 10 to Table 21)
The inhibitory activity of the compounds on several kinases including BRAF, EGFR (ErbB1), EGFR (ErbB1) T790M L858R, FGFR2, KDR (VEGFR2), PDGFRA (PDGFR alpha), SRC and other was evaluated by Invitrogen using the Z′-LYTE® technology. Briefly, the Z′-LYTE® biochemical assay employs a fluorescence-based, coupled-enzyme format and is based on the differential sensitivity of phosphorylated and non-phosphorylated peptides to proteolytic cleavage. The peptide substrate is labeled with two fluorophores—one at each end—that make up a FRET pair. A ratiometric method, which calculates the ratio (the Emission Ratio) of donor emission to acceptor emission after excitation of the donor fluorophore at 400 nm, is used to quantitate reaction progress.
The compounds are screened in 1% DMSO (final) in the well. For 10 point titrations, 3-fold serial dilutions are conducted from the starting concentration. All Peptide/Kinase Mixtures are diluted to a 2× working concentration in the appropriate Kinase Buffer. All ATP Solutions are diluted to a 4× working concentration in Kinase Buffer (50 mM HEPES pH 7.5, 0.01% BRIJ-35, 10 mM MgCl2, 1 mM EGTA). ATP Km apparent is previously determined using a Z′-LYTE® assay.
Each compound was incubated at a concentration of 100 nM (excepted to test the activity against ABL and ABL T315I for which the compounds were incubated at a concentration of 10 μM) and the tables 10 to 21 summarize the results obtained showing the inhibitory power of a compound.

Assay [16] has as its system H1975 cell line. In words: In vitro cell proliferation assay (MTT), H1975. It counts as cell-based. The settings on record: Homo sapiens, read-out: EC50, anti-proliferative activity. The method, then:
as §2, §3

The target in assay [17] is T6, SRC (Homo sapiens, UniProt P12931).
T6 construct: purchased Invitrogen
In words: In vitro kinase assay (Z'-LYTE), SRC. Type of assay: biochemical. The settings on record: read-out: % of inhibition of the kinase compared to the control. A digest of the protocol:
as §1

The target in assay [18] is T7, PDGFRA (PDGFR alpha) (Homo sapiens, UniProt P16234).
T7 construct: purchased Invitrogen
Nature of the assay: In vitro kinase assay (Z'-LYTE), PDGFRA. Type of assay: biochemical. As to conditions: read-out: % of inhibition of the kinase compared to the control. The method in brief: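 FRET-based Z'-LYTE coupled-enzyme assay: kinase phosphorylates a dual-fluorophore peptide, unphosphorylated peptide is protease-cleaved, and donor/acceptor emission ratio after 400 nm excitation quantifies progress. Buffer 50 mM HEPES pH 7.5, 10 mM MgCl2, 1 mM EGTA, 0.01% BRIJ-35; 1% DMSO final. Single compound concentration: 100 nM, or 10 μM for ABL and ABL T315I.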

The mark [19] stands for this setting: HUH-6-clone5, HuH6 Clone 5, 72 hr, MTT.

T3 sequence (P35968 20-1356): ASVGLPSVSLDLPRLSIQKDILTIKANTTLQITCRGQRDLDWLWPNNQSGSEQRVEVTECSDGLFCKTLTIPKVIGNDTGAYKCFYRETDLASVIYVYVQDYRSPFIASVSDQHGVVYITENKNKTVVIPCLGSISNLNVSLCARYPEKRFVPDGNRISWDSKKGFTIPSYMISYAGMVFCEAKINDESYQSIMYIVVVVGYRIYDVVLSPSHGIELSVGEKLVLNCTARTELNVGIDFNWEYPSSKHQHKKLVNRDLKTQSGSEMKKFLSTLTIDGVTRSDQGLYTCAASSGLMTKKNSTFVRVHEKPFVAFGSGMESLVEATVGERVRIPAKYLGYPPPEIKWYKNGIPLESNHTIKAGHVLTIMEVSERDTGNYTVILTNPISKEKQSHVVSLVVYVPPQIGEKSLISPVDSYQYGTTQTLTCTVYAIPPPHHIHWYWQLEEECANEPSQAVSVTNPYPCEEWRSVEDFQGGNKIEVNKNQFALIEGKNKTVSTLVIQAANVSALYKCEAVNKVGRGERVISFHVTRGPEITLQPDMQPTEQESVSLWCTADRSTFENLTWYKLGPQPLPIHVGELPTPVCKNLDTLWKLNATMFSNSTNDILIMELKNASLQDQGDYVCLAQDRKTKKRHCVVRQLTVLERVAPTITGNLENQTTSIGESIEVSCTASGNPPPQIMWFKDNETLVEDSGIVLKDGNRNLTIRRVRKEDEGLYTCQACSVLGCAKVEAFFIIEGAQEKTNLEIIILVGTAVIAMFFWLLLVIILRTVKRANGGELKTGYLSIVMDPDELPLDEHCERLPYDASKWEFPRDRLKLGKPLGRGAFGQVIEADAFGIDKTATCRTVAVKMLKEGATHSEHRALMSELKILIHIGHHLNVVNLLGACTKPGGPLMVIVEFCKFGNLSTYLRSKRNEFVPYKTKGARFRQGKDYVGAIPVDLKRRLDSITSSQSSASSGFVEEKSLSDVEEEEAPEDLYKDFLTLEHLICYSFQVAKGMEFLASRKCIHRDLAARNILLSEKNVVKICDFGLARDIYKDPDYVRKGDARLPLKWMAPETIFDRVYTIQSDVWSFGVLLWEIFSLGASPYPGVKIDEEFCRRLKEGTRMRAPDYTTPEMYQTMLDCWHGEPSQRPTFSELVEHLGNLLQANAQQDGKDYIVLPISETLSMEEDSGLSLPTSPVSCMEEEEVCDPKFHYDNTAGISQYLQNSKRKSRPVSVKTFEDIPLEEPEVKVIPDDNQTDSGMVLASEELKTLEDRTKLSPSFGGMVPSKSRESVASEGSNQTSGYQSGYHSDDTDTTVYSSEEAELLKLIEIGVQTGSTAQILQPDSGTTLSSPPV
T4 sequence (P21802 22-821): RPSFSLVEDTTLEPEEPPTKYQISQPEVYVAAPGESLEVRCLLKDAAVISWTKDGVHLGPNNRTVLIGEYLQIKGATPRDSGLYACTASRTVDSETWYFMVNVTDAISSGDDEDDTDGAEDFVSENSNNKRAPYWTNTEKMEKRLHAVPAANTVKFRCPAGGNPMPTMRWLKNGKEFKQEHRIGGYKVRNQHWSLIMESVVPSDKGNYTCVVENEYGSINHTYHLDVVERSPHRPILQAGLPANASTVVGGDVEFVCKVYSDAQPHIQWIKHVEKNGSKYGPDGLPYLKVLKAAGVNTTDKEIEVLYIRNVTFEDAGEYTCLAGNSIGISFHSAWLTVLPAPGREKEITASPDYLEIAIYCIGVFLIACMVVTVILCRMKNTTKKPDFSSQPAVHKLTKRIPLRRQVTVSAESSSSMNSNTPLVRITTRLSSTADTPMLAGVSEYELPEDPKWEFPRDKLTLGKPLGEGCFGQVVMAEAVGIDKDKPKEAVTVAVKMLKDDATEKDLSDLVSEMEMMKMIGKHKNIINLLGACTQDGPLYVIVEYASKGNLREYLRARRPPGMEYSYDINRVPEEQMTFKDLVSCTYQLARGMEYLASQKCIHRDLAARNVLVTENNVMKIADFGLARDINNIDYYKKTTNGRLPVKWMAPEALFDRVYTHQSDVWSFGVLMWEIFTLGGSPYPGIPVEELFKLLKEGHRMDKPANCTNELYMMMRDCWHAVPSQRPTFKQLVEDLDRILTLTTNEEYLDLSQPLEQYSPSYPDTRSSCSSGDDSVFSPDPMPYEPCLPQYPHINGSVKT
T6 sequence (P12931 whole entry): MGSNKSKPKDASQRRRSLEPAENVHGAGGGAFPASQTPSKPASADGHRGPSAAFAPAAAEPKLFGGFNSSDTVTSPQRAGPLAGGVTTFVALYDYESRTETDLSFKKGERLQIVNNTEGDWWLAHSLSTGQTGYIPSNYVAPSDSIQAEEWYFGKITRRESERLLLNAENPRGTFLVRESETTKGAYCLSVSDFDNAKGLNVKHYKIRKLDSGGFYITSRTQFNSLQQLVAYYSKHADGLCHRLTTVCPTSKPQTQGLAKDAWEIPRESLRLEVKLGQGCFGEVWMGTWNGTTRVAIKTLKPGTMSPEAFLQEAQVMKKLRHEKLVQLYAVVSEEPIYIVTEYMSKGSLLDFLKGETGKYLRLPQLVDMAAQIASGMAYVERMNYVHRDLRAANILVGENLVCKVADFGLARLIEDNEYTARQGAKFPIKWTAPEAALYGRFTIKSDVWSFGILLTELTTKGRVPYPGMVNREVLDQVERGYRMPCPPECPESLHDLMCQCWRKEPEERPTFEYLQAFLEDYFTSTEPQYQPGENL
T7 sequence (P16234 24-1089): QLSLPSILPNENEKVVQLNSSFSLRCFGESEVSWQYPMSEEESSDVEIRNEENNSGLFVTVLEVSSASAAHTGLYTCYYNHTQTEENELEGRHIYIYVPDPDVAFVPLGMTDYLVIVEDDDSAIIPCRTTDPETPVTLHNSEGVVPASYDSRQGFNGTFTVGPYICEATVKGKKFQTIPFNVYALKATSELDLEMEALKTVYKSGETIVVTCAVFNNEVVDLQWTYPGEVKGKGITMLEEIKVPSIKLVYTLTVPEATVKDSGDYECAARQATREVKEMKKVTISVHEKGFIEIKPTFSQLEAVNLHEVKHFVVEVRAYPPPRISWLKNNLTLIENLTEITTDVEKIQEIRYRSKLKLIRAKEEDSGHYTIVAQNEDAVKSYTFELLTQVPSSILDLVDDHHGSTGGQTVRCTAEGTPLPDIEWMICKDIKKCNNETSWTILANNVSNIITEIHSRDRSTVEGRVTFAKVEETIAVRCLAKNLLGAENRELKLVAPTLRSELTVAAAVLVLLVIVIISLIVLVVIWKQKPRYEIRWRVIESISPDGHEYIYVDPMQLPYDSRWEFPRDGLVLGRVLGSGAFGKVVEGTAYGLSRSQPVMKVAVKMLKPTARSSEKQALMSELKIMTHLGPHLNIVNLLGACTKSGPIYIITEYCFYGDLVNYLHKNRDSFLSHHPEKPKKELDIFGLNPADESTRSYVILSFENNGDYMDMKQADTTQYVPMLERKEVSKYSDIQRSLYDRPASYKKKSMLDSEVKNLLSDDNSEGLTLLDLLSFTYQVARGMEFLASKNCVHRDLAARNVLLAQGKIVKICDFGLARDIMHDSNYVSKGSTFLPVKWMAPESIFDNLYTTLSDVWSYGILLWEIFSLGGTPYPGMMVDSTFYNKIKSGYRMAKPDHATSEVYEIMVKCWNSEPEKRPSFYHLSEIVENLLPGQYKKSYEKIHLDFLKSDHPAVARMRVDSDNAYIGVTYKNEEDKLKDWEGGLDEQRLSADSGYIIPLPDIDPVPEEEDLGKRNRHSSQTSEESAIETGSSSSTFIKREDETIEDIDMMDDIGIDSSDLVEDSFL
T5 sequence (P00533 25-1210 T790M/L858R): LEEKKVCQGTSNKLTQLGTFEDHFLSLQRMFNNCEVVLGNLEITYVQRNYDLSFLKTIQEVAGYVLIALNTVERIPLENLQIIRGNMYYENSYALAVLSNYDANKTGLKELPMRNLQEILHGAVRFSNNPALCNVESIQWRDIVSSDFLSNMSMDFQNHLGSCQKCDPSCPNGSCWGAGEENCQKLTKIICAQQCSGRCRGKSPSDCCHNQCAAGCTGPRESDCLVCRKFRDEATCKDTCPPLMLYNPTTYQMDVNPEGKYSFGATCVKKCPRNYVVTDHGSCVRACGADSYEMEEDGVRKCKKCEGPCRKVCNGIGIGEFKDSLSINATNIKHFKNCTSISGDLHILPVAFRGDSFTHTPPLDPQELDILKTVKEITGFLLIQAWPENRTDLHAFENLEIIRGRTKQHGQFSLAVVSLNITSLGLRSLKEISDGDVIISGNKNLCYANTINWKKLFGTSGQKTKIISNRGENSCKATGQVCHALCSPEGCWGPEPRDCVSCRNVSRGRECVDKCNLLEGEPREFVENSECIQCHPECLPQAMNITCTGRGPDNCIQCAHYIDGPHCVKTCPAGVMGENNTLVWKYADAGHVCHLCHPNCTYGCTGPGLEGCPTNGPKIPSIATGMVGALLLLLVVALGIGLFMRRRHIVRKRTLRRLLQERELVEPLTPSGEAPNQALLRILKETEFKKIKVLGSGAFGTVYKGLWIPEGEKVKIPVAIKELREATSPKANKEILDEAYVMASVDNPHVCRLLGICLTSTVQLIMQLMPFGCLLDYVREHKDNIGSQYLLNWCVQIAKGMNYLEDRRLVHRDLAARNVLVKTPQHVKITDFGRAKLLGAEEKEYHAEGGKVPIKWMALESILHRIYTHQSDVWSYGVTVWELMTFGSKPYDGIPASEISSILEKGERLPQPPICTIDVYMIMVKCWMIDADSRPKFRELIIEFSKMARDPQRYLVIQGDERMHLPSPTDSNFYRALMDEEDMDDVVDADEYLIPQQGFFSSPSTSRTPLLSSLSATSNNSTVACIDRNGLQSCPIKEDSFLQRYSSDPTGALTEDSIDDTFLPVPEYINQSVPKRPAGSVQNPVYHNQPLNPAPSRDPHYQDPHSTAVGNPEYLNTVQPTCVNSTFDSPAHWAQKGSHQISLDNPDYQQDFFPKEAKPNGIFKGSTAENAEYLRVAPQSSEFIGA

`CNC(=O)c1cc2cc(NCc3cc(NC(=O)c4ccc(CN5CCN(C)CC5)c(C(F)(F)F)c4)ccc3C)cnc2[nH]1` [OR0751, 5-{2-Methyl-5-[4-(4-methyl-piperazin-1-ylmethyl)-3-trifluoromethyl-benzoylamino]-benzylamino}-1H-pyrrolo[2,3-b]pyridine-2-carboxylic acid methylamide]: the inhibition at 0.1 µM in assay [1], in assay [2], in assay [3], in assay [8], in assay [15] and in assay [17] was at least 50% in each case. Besides, the inhibition at 0.1 µM in [18] was at least 50%. For the same molecule, the EC50 in [4] is at most 0.1 µM; in assay [5] (HUH-6-clone5, 72 h), 0.1 to 1 µM; in assay [6] (HT-29, 72 h), at most 0.1 µM; in [7] (A549, 72 h), 0.1 to 1 µM; in assay [9] (HuCCT-1, 72 h) it was 0.1 to 1 µM; in assay [10], at least 1 µM. The half-maximal effective concentration (EC50) in [11] is at most 0.1 µM; in assay [12] (HepG2, 72 h) it was at most 0.1 µM; in assay [13] (Huh-7, 72 h) it was at most 0.1 µM; in assay [14] (72 h) it was at most 0.1 µM; in assay [16] (NCI-H1975, 72 h) it was 0.1 to 1 µM.
For `CNC(=O)c1cc2cc(NCc3cc(NC(=O)c4ccc(CN5CCC(N(C)C)C5)c(C(F)(F)F)c4)ccc3C)cnc2[nH]1` (centres unmarked) [OR0752, 5-{5-[4-(3-Dimethylamino-pyrrolidin-1-ylmethyl)-3-trifluoromethyl-benzoylamino]-2-methyl-benzylamino}-1H-pyrrolo[2,3-b]pyridine-2-carboxylic acid methylamide], the inhibition at 0.1 µM in assay [1], in [2], in assay [3], in [8], in assay [15] and in assay [17] was at least 50% in each case. Further, in assay [18], the inhibition at 0.1 µM is at least 50%. In addition, the EC50 in assay [5] (HUH-6-clone5, 72 h) is 0.1 to 1 µM; in assay [6] (HT-29, 72 h) it was 0.1 to 1 µM; in assay [7] (A549, 72 h), 0.1 to 1 µM; in assay [9] (HuCCT-1, 72 h) it was 0.1 to 1 µM; in [11], at most 0.1 µM; in [12] (HepG2, 72 h), 0.1 to 1 µM. In addition, the EC50 is 0.1 to 1 µM in assay [13] (Huh-7, 72 h); at most 0.1 µM in [14] (72 h); 0.1 to 1 µM in [16] (NCI-H1975, 72 h).
For `CC(=O)c1cc2cc(NC(=O)c3cc(NC(=O)c4ccc(CN5CCN(C)CC5)c(C(F)(F)F)c4)ccc3C)cnc2[nH]1` [OR0781, N-(2-Acetyl-1H-pyrrolo[2,3-b]pyridin-5-yl)-2-methyl-5-[4-(4-methyl-piperazin-1-ylmethyl)-3-trifluoromethyl-benzoylamino]-benzamide], the inhibition at 0.1 µM in [1], in assay [2], in assay [3], in [8], in assay [15] and in assay [17] was at least 50% in each case. The inhibition at 0.1 µM in assay [18] was at least 50%. Further, the EC50 in [5] (setting [19]) was at least 1 µM; in [6] (HT-29, HT29, 72 hr, MTT), at least 1 µM; in assay [7] (A549, 72 hr, MTT), at least 1 µM; in assay [9] (HuCCT-1, HuCCT1, 72 hr, MTT), at least 1 µM; in assay [12] (HepG2, 72 hr, MTT) it was at least 1 µM; in assay [13] (Huh-7, 72 h), 0.1 to 1 µM. For the same molecule, the EC50 in assay [14] (72 h) is 0.1 to 1 µM; in assay [16] (NCI-H1975, 72 h) it was 0.1 to 1 µM.
For the molecule `CC(=O)c1cc2cc(NC(=O)c3cc(NC(=O)c4ccc(CN5CCC(N(C)C)C5)c(C(F)(F)F)c4)ccc3C)cnc2[nH]1` (centres unmarked) [OR0782, N-(2-Acetyl-1H-pyrrolo[2,3-b]pyridin-5-yl)-2-methyl-5-[4-(3-dimethylamino-pyrrolidin-1-ylmethyl)-3-trifluoromethyl-benzoylamino]-benzamide], the inhibition at 0.1 µM in assay [1] was at least 50%; in assay [2], under 50%; in assay [3] it was at least 50%; in [8], at least 50%; in assay [15], under 50%; in assay [17] it was at least 50%. Also, in assay [18], the inhibition at 0.1 µM was at least 50%. Also, the EC50 in [5] (setting [19]) is at least 1 µM; in [6] (HT-29, HT29, 72 hr, MTT), at least 1 µM; in assay [7] (A549, 72 hr, MTT) it was at least 1 µM; in assay [9] (HuCCT-1, HuCCT1, 72 hr, MTT), at least 1 µM; in assay [12] (HepG2, 72 hr, MTT), at least 1 µM; in [13] (Huh-7, HuH7, 72 hr, MTT), at least 1 µM. Also, the EC50 in assay [14] (72 hr, MTT) is at least 1 µM; in assay [16] (NCI-H1975, H1975, 72 hr, MTT) it was at least 1 µM.
Turning to `CNC(=O)c1cc2cc(NCc3cc(NC(=O)c4ccc(CN5CC[C@H](N(C)C)C5)c(C(F)(F)F)c4)ccc3C)cnc2[nH]1` [OR0813, 5-{5-[4-((S)-3-Dimethylamino-pyrrolidin-1-ylmethyl)-3-trifluoromethyl-benzoylamino]-2-methyl-benzylamino}-1H-pyrrolo-[2,3-b]pyridine-2-carboxylic acid methylamide], the inhibition at 0.1 µM in [1], in [2], in assay [3] and in assay [8] was at least 50% in each case. For the same molecule, the EC50 is 0.1 to 1 µM in [4]; at most 0.1 µM in [7] (A549, 72 h); at least 1 µM in assay [10]; 0.1 to 1 µM in [11]; at most 0.1 µM in [12] (HepG2, 72 h); at most 0.1 µM in assay [14] (72 h).
